The results in this text go back to patent publication US20140100156A1 (SANOFI, priority 2012, published 2014).

The format of data set [1] is physicochemical. Particulars: pH 4.5. The protocol:
Prior to the testing of solubility and stability of a peptide batch, its content was determined. Therefore, two parameters were investigated, its purity (HPLC-UV) and the amount of salt load of the batch (ion chromatography). Since synthesized peptides contain primarily trifluoroacetate anions, only anion chromatography was performed.
. Therefore, solutions from solid samples were prepared in different buffer systems with a concentration of 1.0 mg/mL compound based on the previously determined content. HPLC-UV was performed after 2 h of gentle agitation from the supernatant, which was obtained by 20 min of centrifugation at 4000 rpm.
This analysis also served as starting point (t0) for the stability testing.
Instrument: Agilent 1100, column: X-Bridge C18 3.5 μm 2.1×150 mm (Waters), eluent: A: H20+500 ppm TFA/B: Methanol, flow: 0.55 mL/min, gradient: 0-5 min: 10-60% B; 5-15 min: 60-99% B; detection: 214 nm.

For a further data set, the target named is T1, human GLP-1 receptor (Homo sapiens, UniProt P43220).
T1 construct: expressed in transfected cells; host or cells: HEK-293
T1 sequence (P43220 24-463): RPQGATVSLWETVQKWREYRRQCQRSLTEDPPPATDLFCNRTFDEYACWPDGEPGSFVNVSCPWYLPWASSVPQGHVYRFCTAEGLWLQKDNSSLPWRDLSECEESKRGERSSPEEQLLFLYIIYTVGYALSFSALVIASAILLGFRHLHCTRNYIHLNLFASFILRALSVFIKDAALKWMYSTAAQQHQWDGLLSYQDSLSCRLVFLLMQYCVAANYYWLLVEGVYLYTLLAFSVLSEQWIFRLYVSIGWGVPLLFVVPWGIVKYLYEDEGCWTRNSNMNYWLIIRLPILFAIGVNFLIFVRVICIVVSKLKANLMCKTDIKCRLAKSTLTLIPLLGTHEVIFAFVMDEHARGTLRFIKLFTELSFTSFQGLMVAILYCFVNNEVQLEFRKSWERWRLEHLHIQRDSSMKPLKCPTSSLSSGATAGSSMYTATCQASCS
The data set can be described thus: cAMP response (HTRF) of HEK-293 cells stably expressing human GLP-1 receptor. The data set is classed as cell-based. Particulars: Table 5, read-out: EC50 hGLP-1R. For orientation: Time-resolved FRET reads energy transfer from a long-lived donor to a nearby acceptor.

For a further data set, the target named is T2, human glucagon receptor (Homo sapiens, UniProt P47871).
T2 construct: expressed in transfected cells; host or cells: HEK-293
T2 sequence (P47871 26-477): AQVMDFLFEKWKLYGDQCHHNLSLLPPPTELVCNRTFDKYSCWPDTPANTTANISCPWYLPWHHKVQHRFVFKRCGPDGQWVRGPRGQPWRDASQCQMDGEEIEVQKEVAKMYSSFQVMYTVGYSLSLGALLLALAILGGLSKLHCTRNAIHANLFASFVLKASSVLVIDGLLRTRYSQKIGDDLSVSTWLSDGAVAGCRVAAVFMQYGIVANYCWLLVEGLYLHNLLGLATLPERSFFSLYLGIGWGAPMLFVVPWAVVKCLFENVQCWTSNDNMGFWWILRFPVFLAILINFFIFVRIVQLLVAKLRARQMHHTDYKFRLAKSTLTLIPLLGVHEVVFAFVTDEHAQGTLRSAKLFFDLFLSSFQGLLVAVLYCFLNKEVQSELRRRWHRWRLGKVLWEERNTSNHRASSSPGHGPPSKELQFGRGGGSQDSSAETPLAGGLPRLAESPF
The data set can be described thus: cAMP response (HTRF) of HEK-293 cells stably expressing human glucagon receptor. Format: cell-based. Particulars: Table 5, read-out: EC50 hGlucagon-R.

Experimental for human GLP-1 receptor: (§1) cAMP content of cells was determined using a kit from Cisbio Corp. (cat. no. 62AM4PEC) based on HTRF (Homogeneous Time Resolved Fluorescence). For preparation, cells were split into T175 culture flasks and grown overnight to near confluency in medium (DMEM/10% FBS). Medium was then removed and cells washed with PBS lacking calcium and magnesium, followed by proteinase treatment with accutase (Sigma-Aldrich cat. no. A6964). Detached cells were washed and resuspended in assay buffer (1×HBSS; 20 mM HEPES, 0.1% BSA, 2 mM IBMX) and cellular density determined. […] For measurement, 25 μl of test compound in assay buffer was added to the wells, followed by incubation for 30 minutes at room temperature.
Experimental for human glucagon receptor: as §1

Regarding `CCCCCCCCCCCCCCCC(=O)N[C@@H](CCC(=O)NCCCC[C@H](NC(=O)[C@H](C)NC(=O)[C@H](C)NC(=O)[C@H](CCC(N)=O)NC(=O)CNC(=O)[C@H](CCC(=O)O)NC(=O)[C@H](CC(C)C)NC(=O)[C@H](Cc1ccc(O)cc1)NC(=O)[C@H](CO)NC(=O)[C@H](CO)NC(=O)[C@@H](NC(=O)[C@H](CC(=O)O)NC(=O)[C@H](CO)NC(=O)[C@@H](NC(=O)[C@H](Cc1ccccc1)NC(=O)[C@@H](NC(=O)CNC(=O)[C@H](CCC(=O)O)NC(=O)[C@H](C)NC(=O)[C@@H](N)Cc1cnc[nH]1)[C@@H](C)O)[C@@H](C)O)C(C)C)C(=O)N[C@@H](CCC(=O)O)C(=O)N[C@@H](Cc1ccccc1)C(=O)N[C@H](C(=O)N[C@@H](C)C(=O)N[C@@H](Cc1c[nH]c2ccccc12)C(=O)N[C@@H](CC(C)C)C(=O)N[C@H](C(=O)N[C@@H](CCCNC(=N)N)C(=O)NCC(=O)N[C@@H](CCCNC(=N)N)C(=O)NCC(=O)O)C(C)C)[C@@H](C)CC)C(=O)O` [compound 195], in data set [1], the “Solubility pH4.5” value turned out to be 0 mg/ml.
The term EC50 denotes the concentration that produces a half-maximal response. With `CCCCCCCCCCCCCCCC(=O)N[C@@H](CCC(=O)NCCCC[C@H](NC(=O)[C@H](CCC(N)=O)NC(=O)[C@H](CCCCN)NC(=O)[C@H](CO)NC(=O)[C@H](CC(C)C)NC(=O)[C@H](CC(=O)O)NC(=O)[C@H](CO)NC(=O)[C@@H](NC(=O)[C@H](Cc1ccccc1)NC(=O)[C@@H](NC(=O)CNC(=O)[C@H](Cc1c[nH]cn1)NC(=O)[C@H](CO)NC(=O)[C@@H](N)Cc1c[nH]cn1)[C@@H](C)O)[C@@H](C)O)C(=O)N[C@@H](CCC(=O)O)C(=O)N[C@@H](CO)C(=O)N[C@@H](CCCNC(=N)N)C(=O)N[C@@H](CCCNC(=N)N)C(=O)N[C@@H](C)C(=O)N[C@@H](CCC(N)=O)C(=O)N[C@@H](CC(=O)O)C(=O)N[C@@H](Cc1ccccc1)C(=O)N[C@H](C(=O)N[C@@H](CCC(=O)O)C(=O)N[C@@H](Cc1c[nH]c2ccccc12)C(=O)N[C@@H](CC(C)C)C(=O)N[C@@H](CCCCN)C(=O)N[C@@H](C)C(=O)NCC(=O)NCC(=O)N1CCC[C@H]1C(=O)N[C@@H](CO)C(=O)N[C@@H](CO)C(=O)NCC(=O)N[C@@H](C)C(=O)N1CCC[C@H]1C(=O)N1CCC[C@H]1C(=O)N1CCC[C@H]1C(=O)N[C@@H](CO)C(N)=O)[C@@H](C)CC)C(=O)O` [compound 208], the EC50 on human GLP-1 receptor amounted to 2 pM; on human glucagon receptor it was 1.3 pM.
